Results from patent US20230139171A1 (SITA Information Networking Computing UK Limited, priority 2019, published 2023).

Assays:
Assay type in all cases: cell-based
human TLR7 = target: T1, human TLR7 (Homo sapiens, UniProt Q9NYK1); assay: TLR7 inhibition reporter assay (HEK-Blue cells, SEAP reporter, gardiquimod stimulation); settings: HEK-Blue cells overexpressing human TLR7, SEAP reporter, gardiquimod 7.5 μM; read-out: TLR7 IC50
T1 construct: host or cells: HEK-Blue cells
T1 sequence (Q9NYK1 27-1049): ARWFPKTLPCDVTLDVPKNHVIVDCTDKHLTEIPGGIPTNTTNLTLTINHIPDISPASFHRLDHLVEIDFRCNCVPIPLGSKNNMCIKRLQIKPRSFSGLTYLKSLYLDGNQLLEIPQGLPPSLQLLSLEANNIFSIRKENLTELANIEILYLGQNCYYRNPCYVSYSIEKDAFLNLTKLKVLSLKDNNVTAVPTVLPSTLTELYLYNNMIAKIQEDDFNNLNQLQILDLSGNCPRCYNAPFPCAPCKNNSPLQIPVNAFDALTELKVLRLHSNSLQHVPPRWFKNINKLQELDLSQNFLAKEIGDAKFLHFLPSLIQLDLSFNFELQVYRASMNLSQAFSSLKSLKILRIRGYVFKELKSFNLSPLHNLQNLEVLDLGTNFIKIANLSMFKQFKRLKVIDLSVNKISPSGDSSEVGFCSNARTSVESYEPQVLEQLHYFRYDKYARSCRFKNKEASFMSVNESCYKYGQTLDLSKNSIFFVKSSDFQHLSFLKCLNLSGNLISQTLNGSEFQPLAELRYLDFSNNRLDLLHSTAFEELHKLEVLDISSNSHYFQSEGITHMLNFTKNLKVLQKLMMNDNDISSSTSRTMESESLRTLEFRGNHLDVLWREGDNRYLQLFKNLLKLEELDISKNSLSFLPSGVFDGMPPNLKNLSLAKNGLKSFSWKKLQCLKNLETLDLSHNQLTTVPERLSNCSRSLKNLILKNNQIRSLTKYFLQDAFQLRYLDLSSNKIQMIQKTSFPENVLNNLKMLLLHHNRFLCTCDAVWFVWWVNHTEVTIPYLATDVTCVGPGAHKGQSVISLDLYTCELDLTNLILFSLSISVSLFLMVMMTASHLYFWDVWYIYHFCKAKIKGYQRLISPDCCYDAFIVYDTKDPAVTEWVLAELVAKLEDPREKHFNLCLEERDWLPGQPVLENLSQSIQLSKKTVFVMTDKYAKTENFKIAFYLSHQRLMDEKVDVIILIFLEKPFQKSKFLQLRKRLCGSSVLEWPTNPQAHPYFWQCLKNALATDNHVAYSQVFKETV
Procedure, shortened: (§1)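 Screening used HEK-Blue cells overexpressing one human TLR (7, 8 or 9) and an IFN-β minimal promoter–NF-κB/AP-1 SEAP construct. Stimulation lasted 22 h at 37 °C with receptor-specific agonist: gardiquimod, R848 or ODN2006 at 7.5 μM, 15.9 μM and 5 nM.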

human TLR9 = target: T2, human TLR9 (Homo sapiens, UniProt Q9NR96); assay: TLR9 inhibition reporter assay (HEK-Blue cells, SEAP reporter, ODN2006 stimulation); settings: HEK-Blue cells overexpressing human TLR9, SEAP reporter, ODN2006 5 nM
T2 construct: host or cells: HEK-Blue cells
T2 sequence (Q9NR96 26-1032): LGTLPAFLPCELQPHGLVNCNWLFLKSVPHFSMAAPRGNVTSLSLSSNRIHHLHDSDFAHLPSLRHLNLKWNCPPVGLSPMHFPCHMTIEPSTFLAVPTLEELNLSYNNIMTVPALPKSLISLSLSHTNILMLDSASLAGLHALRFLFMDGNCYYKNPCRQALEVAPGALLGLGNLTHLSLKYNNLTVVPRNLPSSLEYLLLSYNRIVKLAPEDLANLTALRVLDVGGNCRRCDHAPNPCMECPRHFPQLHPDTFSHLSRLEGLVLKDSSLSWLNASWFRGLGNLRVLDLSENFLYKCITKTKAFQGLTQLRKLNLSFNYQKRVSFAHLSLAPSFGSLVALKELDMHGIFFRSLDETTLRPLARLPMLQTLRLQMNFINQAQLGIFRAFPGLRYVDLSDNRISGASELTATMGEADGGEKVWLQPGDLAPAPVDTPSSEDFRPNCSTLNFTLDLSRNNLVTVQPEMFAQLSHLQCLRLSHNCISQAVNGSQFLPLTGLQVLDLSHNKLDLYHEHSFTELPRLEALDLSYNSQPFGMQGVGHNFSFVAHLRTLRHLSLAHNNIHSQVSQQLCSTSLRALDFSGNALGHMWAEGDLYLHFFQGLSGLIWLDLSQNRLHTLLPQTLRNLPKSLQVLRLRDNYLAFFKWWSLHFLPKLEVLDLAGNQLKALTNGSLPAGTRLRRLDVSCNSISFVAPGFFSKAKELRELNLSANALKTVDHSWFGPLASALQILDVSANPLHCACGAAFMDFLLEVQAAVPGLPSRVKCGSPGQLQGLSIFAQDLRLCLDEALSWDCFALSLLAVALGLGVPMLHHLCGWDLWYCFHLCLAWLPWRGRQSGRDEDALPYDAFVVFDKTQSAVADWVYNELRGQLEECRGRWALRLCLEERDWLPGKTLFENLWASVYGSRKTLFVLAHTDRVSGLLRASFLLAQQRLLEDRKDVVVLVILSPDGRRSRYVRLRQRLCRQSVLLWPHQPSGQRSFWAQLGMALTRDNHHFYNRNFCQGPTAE
Procedure, shortened: as §1

human TLR8 = target: T3, human TLR8 (Homo sapiens, UniProt Q9NR97); assay: TLR8 inhibition reporter assay (HEK-Blue cells, SEAP reporter, R848 stimulation); settings: HEK-Blue cells overexpressing human TLR8, SEAP reporter, R848 15.9 μM; read-out: TLR8 IC50
T3 construct: host or cells: HEK-Blue cells
T3 sequence (Q9NR97 27-1041): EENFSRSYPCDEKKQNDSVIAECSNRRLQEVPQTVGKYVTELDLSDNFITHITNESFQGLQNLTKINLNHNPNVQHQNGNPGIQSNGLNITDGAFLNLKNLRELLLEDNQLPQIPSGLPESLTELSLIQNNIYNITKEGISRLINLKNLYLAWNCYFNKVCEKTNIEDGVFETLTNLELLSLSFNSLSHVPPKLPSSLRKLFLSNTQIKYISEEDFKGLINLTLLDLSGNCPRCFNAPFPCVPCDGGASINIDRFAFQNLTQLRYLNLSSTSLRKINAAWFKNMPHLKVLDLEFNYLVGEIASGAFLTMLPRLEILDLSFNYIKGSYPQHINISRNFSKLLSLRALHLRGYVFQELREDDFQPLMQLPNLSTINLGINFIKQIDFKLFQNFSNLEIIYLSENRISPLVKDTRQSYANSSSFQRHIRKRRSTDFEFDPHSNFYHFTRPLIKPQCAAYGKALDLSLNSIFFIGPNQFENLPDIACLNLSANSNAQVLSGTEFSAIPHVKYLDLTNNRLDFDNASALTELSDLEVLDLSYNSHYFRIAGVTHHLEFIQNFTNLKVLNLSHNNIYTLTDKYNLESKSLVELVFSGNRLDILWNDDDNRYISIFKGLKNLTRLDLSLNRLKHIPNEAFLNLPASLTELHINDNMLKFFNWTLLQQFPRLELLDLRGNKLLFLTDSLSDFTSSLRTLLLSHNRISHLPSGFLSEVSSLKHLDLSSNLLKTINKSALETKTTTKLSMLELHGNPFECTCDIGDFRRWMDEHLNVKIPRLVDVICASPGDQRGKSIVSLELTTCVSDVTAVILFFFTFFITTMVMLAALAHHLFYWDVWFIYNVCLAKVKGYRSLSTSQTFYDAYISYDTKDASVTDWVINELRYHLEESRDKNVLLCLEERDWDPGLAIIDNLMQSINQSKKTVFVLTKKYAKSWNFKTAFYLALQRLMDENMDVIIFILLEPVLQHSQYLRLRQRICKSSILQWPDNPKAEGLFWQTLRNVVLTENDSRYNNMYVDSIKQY
Procedure, shortened: as §1

| IC50 (human TLR7) | IC50 (human TLR9) | IC50 (human TLR8) | Structure (SMILES) |
| --- | --- | --- | --- |
| 60.3 nM | > 50000 nM | 41.6 nM | Cc1cc2ncnn2cc1-c1[nH]c2sc(C3CCC(NC4(C)COC4)CC3)nc2c1C(C)C (single isomer, unassigned) [Example 145, N-(4-(6-isopropyl-5-(7-methyl-[1,2,4]triazolo[1,5-a]pyridin-6-yl)-4H-pyrrolo[3,2-d]thiazol-2-yl)cyclohexyl)-3-methyloxetan-3-amine] |
| 19.7 nM | 16300 nM | 0.92 nM | Cc1cc2ncnn2cc1-c1[nH]c2sc(C3CCC(N4CCCOCC4)CC3)nc2c1C(C)C (single isomer, unassigned) [Example 146, 4-(4-(6-isopropyl-5-(7-methyl-[1,2,4]triazolo[1,5-a]pyridin-6-yl)-4H-pyrrolo[3,2-d]thiazol-2-yl)cyclohexyl)-1,4-oxazepane] |
| 90.1 nM | 18800 nM | 5.67 nM | Cc1cc2ncnn2cc1-c1[nH]c2sc(C3CCC(N4CCCOCC4)CC3)nc2c1C(C)C (single isomer, unassigned) [Example 147, 4-(4-(6-isopropyl-5-(7-methyl-[1,2,4]triazolo[1,5-a]pyridin-6-yl)-4H-pyrrolo[3,2-d]thiazol-2-yl)cyclohexyl)-1,4-oxazepane] |
| 11.8 nM | > 50000 nM | 9.93 nM | Cc1cc2ncnn2cc1-c1[nH]c2sc(C3CCC(N4CCNC(=O)C4)CC3)nc2c1C(C)C (single isomer, unassigned) [Example 148, 4-(4-(6-isopropyl-5-(7-methyl-[1,2,4]triazolo[1,5-a]pyridin-6-yl)-4H-pyrrolo[3,2-d]thiazol-2-yl)cyclohexyl)piperazin-2-one] |
| 108 nM | > 50000 nM | 98.5 nM | Cc1cc2ncnn2cc1-c1[nH]c2sc(C3CCC(N4CCNC(=O)C4)CC3)nc2c1C(C)C (single isomer, unassigned) [Example 149, 4-(4-(6-isopropyl-5-(7-methyl-[1,2,4]triazolo[1,5-a]pyridin-6-yl)-4H-pyrrolo[3,2-d]thiazol-2-yl)cyclohexyl)piperazin-2-one] |
| 0.57 nM | 2830 nM | 0.39 nM | COC1CN(C2CCC(c3nc4c(C(C)C)c(-c5cn6ncnc6cc5C)[nH]c4s3)CC2)C1 (single isomer, unassigned) [Example 150, 6-isopropyl-2-(4-(3-methoxyazetidin-1-yl)cyclohexyl)-5-(7-methyl-[1,2,4]triazolo[1,5-a]pyridin-6-yl)-4H-pyrrolo[3,2-d]thiazole] |
| 49.2 nM | 23400 nM | 60 nM | COC1CN(C2CCC(c3nc4c(C(C)C)c(-c5cn6ncnc6cc5C)[nH]c4s3)CC2)C1 (single isomer, unassigned) [Example 151, 6-isopropyl-2-(4-(3-methoxyazetidin-1-yl)cyclohexyl)-5-(7-methyl-[1,2,4]triazolo[1,5-a]pyridin-6-yl)-4H-pyrrolo[3,2-d]thiazole] |
| 13.7 nM | 20900 nM | 31.6 nM | Cc1cc2ncnn2cc1-c1[nH]c2sc(C3CCC(NC4COC4)CC3)nc2c1C(C)C (single isomer, unassigned) [Example 152, N-(4-(6-isopropyl-5-(7-methyl-[1,2,4]triazolo[1,5-a]pyridin-6-yl)-4H-pyrrolo[3,2-d]thiazol-2-yl)cyclohexyl)oxetan-3-amine] |
| 27.8 nM | 22300 nM | 6.62 nM | Cc1cc2ncnn2cc1-c1[nH]c2sc(C3CCC(NC4COC4)CC3)nc2c1C(C)C (single isomer, unassigned) [Example 153, N-(4-(6-isopropyl-5-(7-methyl-[1,2,4]triazolo[1,5-a]pyridin-6-yl)-4H-pyrrolo[3,2-d]thiazol-2-yl)cyclohexyl)oxetan-3-amine] |
| 11.9 nM | 9310 nM | 3.33 nM | Cc1cc2ncnn2cc1-c1[nH]c2sc(C3CCC(N4CCCC4)CC3)nc2c1C(C)C (single isomer, unassigned) [Example 154, 6-isopropyl-5-(7-methyl-[1,2,4]triazolo[1,5-a]pyridin-6-yl)-2-(4-(pyrrolidin-1-yl)cyclohexyl)-4H-pyrrolo[3,2-d]thiazole] |
| 41.5 nM | > 50000 nM | 21.5 nM | Cc1cc2ncnn2cc1-c1[nH]c2sc(C3CCC(N4CCCC4)CC3)nc2c1C(C)C (single isomer, unassigned) [Example 155, 6-isopropyl-5-(7-methyl-[1,2,4]triazolo[1,5-a]pyridin-6-yl)-2-(4-(pyrrolidin-1-yl)cyclohexyl)-4H-pyrrolo[3,2-d]thiazole] |
| 1.72 nM | 10900 nM | 0.09 nM | Cc1cc2ncnn2cc1-c1[nH]c2sc(C3CCC(NCC(C)(C)O)CC3)nc2c1C(C)C (single isomer, unassigned) [Example 156, 1-((4-(6-isopropyl-5-(7-methyl-[1,2,4]triazolo[1,5-a]pyridin-6-yl)-4H-pyrrolo[3,2-d]thiazol-2-yl)cyclohexyl)amino)-2-methylpropan-2-ol] |
